Experimental data reported in the supplement of paper PMC10307832.

compound: N[C@@H]1CCCN(c2c(/C=C3\SC(=O)NC3=O)cccc2-c2ccccc2)C1 [AZD1208] + Nc1ncn([C@H]2C[C@H](O)[C@@H](CO)O2)c(=O)n1 [Decitabine] (partner 2 µM); assay: relative viability (nuclei count vs DMSO), 5 days (fraction); higher = more cells survive; settings: first compound 0.08 µM
Outline: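 Dosing by pin tool came one day after lung cancer cell lines were seeded in 1536-well plates, using either one drug or a fixed anchor-drug dose plus five library-drug doses (not always all listed) in √10 steps. After 5 days, nuclei were counted on 4× images. Relative viability is treated-well nuclei count divided by vehicle-well nuclei count, and values are medians of duplicate plates.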

| Cell Line | relative viability |
| --- | --- |
| HCC-44 | 0.98 |
| LU99A | 0.991 |
| BEN | 0.779 |
| HARA | 0.767 |
| HCC-78 | 0.685 |
| NCI-H441 | 0.205 |
| LCLC-97TM1 | 0.175 |
| A-427 | 0.541 |
| NCI-H460 | 0.458 |
| NCI-H727 | 0.906 |
| NCI-H1734 | 0.534 |
| NCI-H2405 | 0.683 |
| NCI-H1395 | 0.724 |
| 201T | 0.886 |
| NCI-H1915 | 0.249 |
| HCC-827 | 0.435 |
| LXF-289 | 0.36 |

| Cell Line | relative viability |
| --- | --- |
| NCI-H2347 | 0.599 |
| NCI-H650 | 0.284 |
| NCI-H1651 | 0.665 |
| EPLC-272H | 0.412 |
| NCI-H23 | 0.292 |
| NCI-H1792 | 0.624 |
| NCI-H1355 | 0.331 |
| NCI-H322M | 0.669 |
| NCI-H1437 | 0.546 |
| NCI-H1755 | 0.695 |
| NCI-H2085 | 0.555 |
| HCC-15 | 0.612 |
| NCI-H1793 | 0.447 |
| PC-3 [JPC-3] | 0.81 |
| EKVX | 0.286 |
| LC-2-ad | 0.79 |
| NCI-H1944 | 0.42 |

same assay, conditions: first compound 0.253 µM

| Cell Line | relative viability |
| --- | --- |
| HCC-44 | 0.907 |
| LU99A | 0.899 |
| BEN | 0.577 |
| HARA | 0.578 |
| HCC-78 | 0.629 |
| NCI-H441 | 0.298 |
| LCLC-97TM1 | 0.209 |
| A-427 | 0.568 |
| NCI-H460 | 0.604 |
| NCI-H727 | 0.689 |
| NCI-H1734 | 0.466 |
| NCI-H2405 | 0.752 |
| NCI-H1395 | 0.785 |
| 201T | 0.868 |
| NCI-H1915 | 0.263 |
| HCC-827 | 0.327 |
| LXF-289 | 0.423 |

| Cell Line | relative viability |
| --- | --- |
| NCI-H2347 | 0.631 |
| NCI-H650 | 0.297 |
| NCI-H1651 | 0.642 |
| EPLC-272H | 0.342 |
| NCI-H23 | 0.285 |
| NCI-H1792 | 0.538 |
| NCI-H1355 | 0.327 |
| NCI-H322M | 0.659 |
| NCI-H1437 | 0.594 |
| NCI-H1755 | 0.675 |
| NCI-H2085 | 0.491 |
| HCC-15 | 0.624 |
| NCI-H1793 | 0.448 |
| PC-3 [JPC-3] | 0.932 |
| EKVX | 0.356 |
| LC-2-ad | 0.8 |
| NCI-H1944 | 0.437 |

same assay, conditions: first compound 0.8 µM

| Cell Line | relative viability |
| --- | --- |
| HCC-44 | 0.939 |
| LU99A | 0.795 |
| BEN | 0.653 |
| HARA | 0.486 |
| HCC-78 | 0.646 |
| NCI-H441 | 0.291 |
| LCLC-97TM1 | 0.238 |
| A-427 | 0.528 |
| NCI-H460 | 0.465 |
| NCI-H727 | 0.589 |
| NCI-H1734 | 0.44 |
| NCI-H2405 | 0.695 |
| NCI-H1395 | 0.714 |
| 201T | 0.855 |
| NCI-H1915 | 0.235 |
| HCC-827 | 0.281 |

| Cell Line | relative viability |
| --- | --- |
| LXF-289 | 0.378 |
| NCI-H2347 | 0.564 |
| NCI-H650 | 0.352 |
| EPLC-272H | 0.392 |
| NCI-H23 | 0.308 |
| NCI-H1355 | 0.335 |
| NCI-H1437 | 0.638 |
| NCI-H1755 | 0.723 |
| NCI-H2085 | 0.587 |
| HCC-15 | 0.491 |
| NCI-H1793 | 0.509 |
| PC-3 [JPC-3] | 0.751 |
| EKVX | 0.327 |
| LC-2-ad | 0.781 |
| NCI-H1944 | 0.467 |

same assay, conditions: first compound 2.53 µM

| Cell Line | relative viability |
| --- | --- |
| HCC-44 | 0.995 |
| LU99A | 0.852 |
| BEN | 0.653 |
| HARA | 0.536 |
| HCC-78 | 0.704 |
| NCI-H441 | 0.224 |
| LCLC-97TM1 | 0.233 |
| A-427 | 0.508 |
| NCI-H460 | 0.495 |
| NCI-H727 | 0.867 |
| NCI-H1734 | 0.424 |
| NCI-H2405 | 0.719 |
| NCI-H1395 | 0.719 |
| 201T | 0.97 |
| NCI-H1915 | 0.271 |
| HCC-827 | 0.341 |
| LXF-289 | 0.36 |

| Cell Line | relative viability |
| --- | --- |
| NCI-H2347 | 0.671 |
| NCI-H650 | 0.31 |
| NCI-H1651 | 0.613 |
| EPLC-272H | 0.364 |
| NCI-H23 | 0.329 |
| NCI-H1792 | 0.505 |
| NCI-H1355 | 0.341 |
| NCI-H322M | 0.669 |
| NCI-H1437 | 0.581 |
| NCI-H1755 | 0.713 |
| NCI-H2085 | 0.544 |
| HCC-15 | 0.576 |
| NCI-H1793 | 0.463 |
| PC-3 [JPC-3] | 0.887 |
| EKVX | 0.351 |
| LC-2-ad | 0.879 |
| NCI-H1944 | 0.355 |

same assay, conditions: first compound 8 µM

| Cell Line | relative viability |
| --- | --- |
| HCC-44 | 0.916 |
| LU99A | 0.799 |
| BEN | 0.564 |
| HARA | 0.545 |
| HCC-78 | 0.697 |
| NCI-H441 | 0.264 |
| LCLC-97TM1 | 0.178 |
| A-427 | 0.448 |
| NCI-H460 | 0.516 |
| NCI-H727 | 0.854 |
| NCI-H1734 | 0.409 |
| NCI-H2405 | 0.653 |
| NCI-H1395 | 0.685 |
| 201T | 0.893 |
| NCI-H1915 | 0.231 |
| HCC-827 | 0.335 |
| LXF-289 | 0.289 |
| NCI-H2347 | 0.645 |
| NCI-H650 | 0.343 |
| NCI-H1651 | 0.554 |
| EPLC-272H | 0.368 |
| NCI-H23 | 0.275 |
| NCI-H1792 | 0.468 |
| NCI-H1355 | 0.33 |
| NCI-H322M | 0.713 |
| NCI-H1437 | 0.536 |
